Reference: patent US20230075925A1, “NON-PERIPHERAL QUATERNARY AMMONIUM-MODIFIED ZINC PHTHALOCYANINE AND PREPARATION METHOD AND USE THEREOF” (FUZHOU UNIVERSITY, priority 2020, published 2023)

How the values were obtained:
[1] = test system: melanoma cells B16-F10 tumors (proximal and distal); test: PDT / anti-PD-L1 combination therapy in bilateral B16-F10 tumor-bearing mouse model (tumor inhibition rate); format: in vivo; conditions: for tumor inhibition rate on proximal tumors (illuminated tumors): PDT group (phthalocyanine+illumination), 100 μL of 200 μM, 685 nm 15 mW/cm^2 5 min, 14 days
Description: A bilateral tumor-bearing mouse model of melanoma cells B16-F10 (proximal and distal) was established. During PDT, the proximal referred to an illuminated side, and the distal referred to a non-illuminated side. The distribution and metabolism of photosensitizers in the tumor-bearing mouse were investigated by a small animal fluorescence imager and a tissue extraction method, and PDT was conducted under optimal conditions. The following 5 groups of experiments were set up, with 5 mice in each group: a PBS control group; an anti-PD-L1 antibody treatment group; a simple phthalocyanine (no illumination) treatment group; a phthalocyanine+illumination treatment group, namely a PDT group; and a phthalocyanine+illumination+anti-PD-L1 antibody treatment group, namely a combination therapy group. The anti-PD-L1 antibody was purchased from BioX cell.
In the combination therapy group, the PDT group and the simple photosensitizer group, 100 μL of a phthalocyanine compound (at a concentration of 200 μM, diluted with 0.5% CEL) was administered to each mouse. The combination therapy group and the PDT group were irradiated by a laser with a wavelength of 685 nm (at an irradiation power of 15 mW/cm^2 for 5 min) on the right tumor (proximal tumor) 8 h to 12 h after the administration. The combination therapy group was administered at 50 μg of PD-L1 antibody/mouse immediately after laser treatment, and the antibody group was administered 50 μg of PD-L1 antibody/mouse at the same time. One treatment was given on the first and fourth day separately.
From the first treatment, a body weight and a tumor volume of all mice were measured every other day, and a tumor size was calculated according to a formula: tumor volume=tumor length×width×height×π/6; after 14 consecutive days of observation, a tumor inhibition rate of each experimental group was calculated.

[2] = test system: human cervical cancer cells Hela; test: Dark toxicity and photodynamic activity on Hela cells (MTT cell viability); format: cell-based; conditions: 4 μM
Description: The non-peripheral quaternary ammonium-modified zinc phthalocyanine prepared in Example 1 was dissolved in a 1% castor oil derivative (Cremophor EL, wt %) aqueous solution to prepare a 0.1 mM photosensitizer. The dark toxicity and photodynamic activity of the photosensitizer were tested on human cervical cancer cells Hela.
0.1 mM or 0.2 mM of the photosensitizer was diluted into a cell medium to prepare a cell medium containing zinc phthalocyanine complexes at different concentrations. The cancer cells were cultured in the medium containing different concentrations of zinc phthalocyanine complexes for 2 h; after staining, the medium was discarded; and after washing with PBS, the cells were added into a new medium (without zinc phthalocyanine complexes). Illumination experiment group: the cells were irradiated with red light for 30 min at a power of irradiated light at 15 mW cm^−2 using red light with a wavelength greater than 600 nm as an excitation light source; non-illumination control group: the cells were placed in the dark for 30 min. After illumination or non-illumination, a cell viability was examined by MTT. The specific experimental steps referred to “Bioorganic & Medicinal Chemistry Letters, 2006, 16, 2450-2453”. […]

B16-F10 cells = test: Tumor recurrence (immune memory) after re-injection of B16-F10 cells following combination therapy; format: in vivo, ICR mouse; conditions: combination with PD-L1 antibody; 1×10^6 B16-F10 cells injected on 7th day after therapy, observed 21 d, 5 mice
Excerpt: More importantly, the mice treated with a combination of the zinc phthalocyanine in Example 1 and the PD-L1 antibody have an immune memory effect, which can effectively prevent tumor recurrence. On a 7th day after the combination therapy of zinc phthalocyanine in Example 1 and PD-L1 antibody, 1×10^6 B16-F10 cells were subcutaneously injected into a left ventral side of each ICR mouse (5 mice in each group), and the mice were continued to be observed for 21 d. […] However, the mice in remaining control groups are observed to have obvious melanoma regrowth, and no ability is observed to prevent tumor recurrence.

Row | Compound | tumor inhibition rate on proximal tumors (illuminated tumors) [1] | cancer cells killed under red light irradiation ([2]; red light 15 mW cm^−2 for 30 min) | dark toxicity (killing and growth inhibition of Hela cells without irradiation) ([2]; without irradiation, 2 h incubation) | tumor inhibition rate on distal tumors (unilluminated tumors) ([1]; combination therapy group: phthalocyanine+illumination+anti-PD-L1 antibody (50 μg/mouse)) | effect on in situ tumors ([1]; combined with immune checkpoint blocker PD-L1 antibody) | effective rate in preventing recurrence (B16-F10 cells)
1 | 1-[4-(aminoethyl)phenoxy] zinc phthalocyanine [Comparative Example 1, reference compound] | 69% | – | – | – | – | –
2 | C[N+](C)(C)CCc1ccc(Oc2cccc3c4nc5nc(nc6nc(nc7[n-]c(nc([n-]4)c23)c2ccccc72)-c2ccccc2-6)-c2ccccc2-5)cc1.[I-].[Zn+2] [Example 1, 1-[4-(N,N,N-trimethyl-2-aminoethyl)phenoxy] zinc phthalocyanine iodide] | 51% | 100% | no dark toxicity | 90% | completely remove in situ tumors | 80%
